Values quoted from earlier work in paper PMC11678311, “Log BB Prediction Models Using TLC and HPLC Retention Values as Protein Affinity Data” (Pharmaceutics, 2024).

Details: drugs highly bound to plasma proteins whose log BB may be less than zero

SMILES | penetration of the blood–brain barrier / central action
CC(C)Cc1ccc(C(C)C(=O)O)cc1 (centres unmarked) [ibuprofen] | cross the blood–brain barrier in an unbound state and act centrally
Cc1ncc2n1-c1ccc(Cl)cc1C(c1ccccc1F)=NC2 [midazolam] | cross the blood–brain barrier in an unbound state and act centrally
